Assay results from ChEMBL document CHEMBL1135137, “Synthesis and pharmacological characterization of a potent, orally active p38 kinase inhibitor” (Bioorg Med Chem Lett, 2002).
Converted amounts (≈) assume the structure as drawn.

Legend:
[1] = biological target: Mitogen-activated protein kinase 14 (Homo sapiens, UniProt Q16539); assay: Inhibitory activity against Mitogen-activated protein kinase p38 alpha 2
[2] = Solubility at pH 2.0; assay type: physicochemical; details: buffer
[3] = biological target: Epidermal growth factor receptor (Homo sapiens) (UniProt P00533); assay: Inhibition of Epidermal growth factor receptor at 10 uM
[4] = biological target: Receptor tyrosine-protein kinase erbB-2 (Homo sapiens, UniProt P04626); assay: Inhibition of human epidermal growth factor receptor-2
Mus musculus [5] = assay: Effect on LPS-induced TNF-alpha production in mice at 10 mg/kg peroral dose; assay type: functional; details: route oral
Mus musculus [6] = assay: Effect on LPS-induced TNF-alpha production in mice at 50 mg/kg peroral dose; assay type: functional; details: route oral
Mus musculus [7] = assay: Effect in murine model of arthritis onset in mice immunized with bovine type II collagen at 10 mg/kg; Number of paws affected; assay type: functional
Mus musculus [8] = assay: Effect in murine model of arthritis onset in mice immunized with bovine type II collagen at 3 mg/kg; Number of paws affected; assay type: functional
Mus musculus [9] = assay: Effect in murine model of arthritis onset in mice immunized with bovine type II collagen at 30 mg/kg; Number of paws affected; assay type: functional
Mus musculus [10] = assay: Effect in murine model of arthritis onset in mice immunized with bovine type II collagen at 10 mg/kg; Histopathology in inflammatory cell; assay type: functional
Mus musculus [11] = assay: Effect in murine model of arthritis onset in mice immunized with bovine type II collagen at 10 mg/kg; Histopathology in interstitial edema; assay type: functional
Mus musculus [12] = assay: Effect in murine model of arthritis onset in mice immunized with bovine type II collagen at 30 mg/kg; Histopathology in inflammatory cell; assay type: functional
Mus musculus [13] = assay: Effect in murine model of arthritis onset in mice immunized with bovine type II collagen at 30 mg/kg; Histopathology in interstitial edema; assay type: functional
Mus musculus [14] = assay: Percent inhibition of TNF-alpha-induced IL-6 production at 25 mg/kg peroral dose in mice; assay type: functional; details: route oral
Mus musculus [15] = assay: Percentage inhibition of LPS-induced TNF-alpha production in mice at 10 mg/kg peroral dose; assay type: functional; details: route oral
Mus musculus [16] = assay: Percent inhibition of TNF-alpha-induced IL-6 production at 50 mg/kg peroral dose in mice; assay type: functional; details: route oral
Mus musculus [17] = assay: Effect in murine model of arthritis onset in mice immunized with bovine type II collagen at 3 mg/kg; Histopathology in interstitial edema; assay type: functional
Mus musculus [18] = assay: Percentage inhibition of LPS-induced TNF-alpha production in mice at 50 mg/kg peroral dose; assay type: functional; details: route oral
Mus musculus [19] = assay: Effect on LPS-induced TNF-alpha production in mice at 20 mg/kg peroral dose; assay type: functional; details: route oral
[20] = biological target: Mitogen-activated protein kinase 11 (Homo sapiens, UniProt Q15759); assay: Inhibition of Mitogen-activated protein kinase p38 beta
[21] = biological target: Mitogen-activated protein kinase 3 (Homo sapiens) (UniProt P27361); assay: Inhibition of Mitogen-activated protein kinase 3 at 5 uM
Mus musculus [22] = assay: Effect in murine model of arthritis onset in mice immunized with bovine type II collagen at 3 mg/kg; Histopathology in inflammatory cell; assay type: functional
Mus musculus [23] = assay: Percentage inhibition of LPS-induced TNF-alpha production in mice at 20 mg/kg peroral dose; assay type: functional; details: route oral
[24] = biological target: Protein kinase C beta type (Homo sapiens) (UniProt P05771); assay: Inhibition of Protein kinase C beta at 10 uM
[25] = biological target: Protein kinase C alpha type (Homo sapiens) (UniProt P17252); assay: Inhibition of Protein kinase C alpha at 10 uM
[26] = biological target: cAMP-dependent protein kinase (PKA) (Homo sapiens) (UniProt P22694+P17612+P22612); assay: Inhibition of Protein kinase A at 10 uM; assay type: protein assay
[27] = biological target: Protein kinase C gamma type (Homo sapiens) (UniProt P05129); assay: Inhibition of Protein kinase C gamma at 10 uM
SW1353 = assay: TNF-alpha-induced IL-6 production in SW1353 cells; assay type: functional, cell-based; details: Homo sapiens
[28] = biological target: Mitogen-activated protein kinase 8 (Homo sapiens) (UniProt P45983); assay: Inhibition of c-Jun N-terminal kinase 1 at 0.5 uM
[29] = biological target: Tyrosine-protein kinase Fyn (Homo sapiens) (UniProt P06241); assay: Inhibition of p59 Fyn tyrosine kinase at 10 uM
[30] = biological target: Tyrosine-protein kinase Lck (Homo sapiens) (UniProt P06239); assay: Inhibition of p59 Lck tyrosine kinase at 10 uM
[31] = biological target: Tyrosine-protein kinase ABL (Homo sapiens) (UniProt P00519+P42684); assay: Inhibition of Abl tyrosine kinase at 5 uM; assay type: protein assay
[32] = Solubility at pH 7.5; assay type: physicochemical; details: buffer
Mus musculus [33] = assay: Percent inhibition of TNF-alpha-induced IL-6 production at 100 mg/kg peroral dose in mice; assay type: functional; details: route oral
Mus musculus [34] = assay: Effect on LPS-induced TNF-alpha production in mice at 30 mg/kg peroral dose; assay type: functional; details: route oral
Mus musculus [35] = assay: Effect in murine model of arthritis onset in mice immunized with bovine type II collagen at 50 mg/kg; Number of paws affected; assay type: functional
Mus musculus [36] = assay: Effect in murine model of arthritis onset in mice immunized with bovine type II collagen at 50 mg/kg; Histopathology in inflammatory cell; assay type: functional
Mus musculus [37] = assay: Effect in murine model of arthritis onset in mice immunized with bovine type II collagen at 50 mg/kg; Histopathology in interstitial edema; assay type: functional
Mus musculus [38] = species: Mus musculus; assay: animal or person; details: po, read-out: Inhibition
Mus musculus [39] = species: Mus musculus; assay: animal or person; details: po, read-out: Inhibition; remark: listed apart in the source
Mus musculus [40] = species: Mus musculus; assay: animal or person; details: po, read-out: Inhibition; remark: listed apart in the source
Mus musculus [41] = assay: Percent inhibition of TNF-alpha-induced IL-6 production at 10 mg/kg peroral dose in mice; assay type: functional; details: route oral

Mitogen-activated protein kinase 14, sequence (Q16539 whole entry): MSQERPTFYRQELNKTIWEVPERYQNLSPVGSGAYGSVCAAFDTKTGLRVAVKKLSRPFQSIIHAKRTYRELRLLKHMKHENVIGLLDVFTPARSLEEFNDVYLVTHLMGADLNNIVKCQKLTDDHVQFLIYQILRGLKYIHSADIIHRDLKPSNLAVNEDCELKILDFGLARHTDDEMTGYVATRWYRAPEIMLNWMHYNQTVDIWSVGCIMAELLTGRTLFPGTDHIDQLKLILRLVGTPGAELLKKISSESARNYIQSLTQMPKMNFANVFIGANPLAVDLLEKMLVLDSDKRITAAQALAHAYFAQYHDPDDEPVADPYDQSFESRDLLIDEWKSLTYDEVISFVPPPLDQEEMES
Mitogen-activated protein kinase 8 (Homo sapiens), sequence (P45983 whole entry): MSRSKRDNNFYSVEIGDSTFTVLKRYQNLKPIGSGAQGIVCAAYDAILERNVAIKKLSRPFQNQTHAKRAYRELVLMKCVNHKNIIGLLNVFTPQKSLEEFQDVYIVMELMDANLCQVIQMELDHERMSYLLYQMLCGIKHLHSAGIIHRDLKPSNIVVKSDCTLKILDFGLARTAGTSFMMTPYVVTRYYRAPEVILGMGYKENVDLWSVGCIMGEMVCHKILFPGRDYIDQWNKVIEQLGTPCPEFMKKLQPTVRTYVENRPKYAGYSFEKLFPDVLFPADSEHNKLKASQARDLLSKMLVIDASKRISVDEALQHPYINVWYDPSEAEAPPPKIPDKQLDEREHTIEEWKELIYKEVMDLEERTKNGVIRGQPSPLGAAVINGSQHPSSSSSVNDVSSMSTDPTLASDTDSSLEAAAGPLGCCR
Mitogen-activated protein kinase 11, sequence (Q15759 whole entry): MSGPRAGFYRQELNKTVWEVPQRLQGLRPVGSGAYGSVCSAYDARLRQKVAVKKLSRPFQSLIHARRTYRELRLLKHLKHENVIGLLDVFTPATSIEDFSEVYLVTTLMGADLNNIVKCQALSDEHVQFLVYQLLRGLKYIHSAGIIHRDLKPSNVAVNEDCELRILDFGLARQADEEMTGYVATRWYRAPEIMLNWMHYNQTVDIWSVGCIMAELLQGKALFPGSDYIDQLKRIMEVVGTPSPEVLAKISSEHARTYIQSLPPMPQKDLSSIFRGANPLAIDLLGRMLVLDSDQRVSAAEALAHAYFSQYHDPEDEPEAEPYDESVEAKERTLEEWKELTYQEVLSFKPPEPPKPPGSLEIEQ
Tyrosine-protein kinase ABL (Homo sapiens), sequence (P00519 whole entry, looked up): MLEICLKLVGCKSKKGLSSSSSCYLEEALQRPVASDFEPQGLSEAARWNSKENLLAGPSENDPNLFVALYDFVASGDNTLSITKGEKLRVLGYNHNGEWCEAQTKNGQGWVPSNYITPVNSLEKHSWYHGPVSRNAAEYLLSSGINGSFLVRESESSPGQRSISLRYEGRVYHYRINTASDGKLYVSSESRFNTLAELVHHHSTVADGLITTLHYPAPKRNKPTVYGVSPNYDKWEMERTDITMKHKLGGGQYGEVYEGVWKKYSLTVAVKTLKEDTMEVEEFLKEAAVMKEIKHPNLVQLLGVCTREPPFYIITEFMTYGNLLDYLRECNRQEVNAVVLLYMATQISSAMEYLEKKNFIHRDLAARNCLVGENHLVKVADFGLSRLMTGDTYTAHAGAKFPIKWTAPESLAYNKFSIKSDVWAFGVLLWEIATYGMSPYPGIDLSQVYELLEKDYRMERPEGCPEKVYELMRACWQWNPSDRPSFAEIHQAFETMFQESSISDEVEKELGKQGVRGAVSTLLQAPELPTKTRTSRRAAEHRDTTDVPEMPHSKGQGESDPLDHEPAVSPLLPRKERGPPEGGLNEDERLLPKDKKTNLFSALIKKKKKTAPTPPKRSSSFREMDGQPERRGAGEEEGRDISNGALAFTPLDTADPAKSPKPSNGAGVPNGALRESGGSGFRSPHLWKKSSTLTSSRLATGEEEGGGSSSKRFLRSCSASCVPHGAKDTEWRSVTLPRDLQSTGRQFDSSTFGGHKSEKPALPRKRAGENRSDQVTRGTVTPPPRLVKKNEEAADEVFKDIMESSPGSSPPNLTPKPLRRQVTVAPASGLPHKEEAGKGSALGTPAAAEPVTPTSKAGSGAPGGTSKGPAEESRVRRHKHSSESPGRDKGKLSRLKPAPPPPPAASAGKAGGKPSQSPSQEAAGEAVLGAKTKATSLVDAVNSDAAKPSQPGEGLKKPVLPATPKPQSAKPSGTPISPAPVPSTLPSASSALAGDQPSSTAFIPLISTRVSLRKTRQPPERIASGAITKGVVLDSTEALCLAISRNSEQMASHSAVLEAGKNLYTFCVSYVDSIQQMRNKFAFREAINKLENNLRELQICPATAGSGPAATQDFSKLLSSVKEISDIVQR
Tyrosine-protein kinase ABL (Homo sapiens), sequence (P42684 whole entry, looked up): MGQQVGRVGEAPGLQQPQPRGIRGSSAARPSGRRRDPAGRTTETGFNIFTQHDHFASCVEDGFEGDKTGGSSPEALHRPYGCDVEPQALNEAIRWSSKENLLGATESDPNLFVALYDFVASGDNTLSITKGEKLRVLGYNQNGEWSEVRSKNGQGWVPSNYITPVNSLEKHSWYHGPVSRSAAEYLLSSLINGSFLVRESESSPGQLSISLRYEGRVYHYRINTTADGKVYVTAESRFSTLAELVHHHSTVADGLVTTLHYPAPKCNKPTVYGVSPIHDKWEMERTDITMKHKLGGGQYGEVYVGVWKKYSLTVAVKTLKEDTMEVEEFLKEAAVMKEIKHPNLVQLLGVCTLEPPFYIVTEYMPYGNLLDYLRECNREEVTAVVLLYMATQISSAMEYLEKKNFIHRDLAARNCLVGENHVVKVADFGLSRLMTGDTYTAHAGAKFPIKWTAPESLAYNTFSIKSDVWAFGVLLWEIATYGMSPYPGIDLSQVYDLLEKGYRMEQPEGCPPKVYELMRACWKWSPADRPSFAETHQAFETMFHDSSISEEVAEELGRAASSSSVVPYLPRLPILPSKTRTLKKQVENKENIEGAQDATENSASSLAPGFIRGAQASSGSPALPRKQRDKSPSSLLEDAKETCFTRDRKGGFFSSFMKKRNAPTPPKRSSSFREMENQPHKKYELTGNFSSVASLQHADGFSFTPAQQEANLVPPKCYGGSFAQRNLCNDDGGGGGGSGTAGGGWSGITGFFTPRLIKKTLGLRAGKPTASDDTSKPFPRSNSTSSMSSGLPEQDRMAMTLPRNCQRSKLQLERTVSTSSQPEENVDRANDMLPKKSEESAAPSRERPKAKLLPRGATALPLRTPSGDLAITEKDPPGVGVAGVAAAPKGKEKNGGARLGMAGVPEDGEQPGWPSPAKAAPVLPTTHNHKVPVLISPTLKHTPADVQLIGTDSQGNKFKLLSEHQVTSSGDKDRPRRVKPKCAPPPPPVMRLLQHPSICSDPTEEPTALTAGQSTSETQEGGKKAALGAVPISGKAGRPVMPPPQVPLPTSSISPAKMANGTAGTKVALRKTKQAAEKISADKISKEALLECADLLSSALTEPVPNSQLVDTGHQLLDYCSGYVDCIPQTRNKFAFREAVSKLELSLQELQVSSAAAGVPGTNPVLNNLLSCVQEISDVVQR
Mitogen-activated protein kinase 3 (Homo sapiens), sequence (P27361 whole entry): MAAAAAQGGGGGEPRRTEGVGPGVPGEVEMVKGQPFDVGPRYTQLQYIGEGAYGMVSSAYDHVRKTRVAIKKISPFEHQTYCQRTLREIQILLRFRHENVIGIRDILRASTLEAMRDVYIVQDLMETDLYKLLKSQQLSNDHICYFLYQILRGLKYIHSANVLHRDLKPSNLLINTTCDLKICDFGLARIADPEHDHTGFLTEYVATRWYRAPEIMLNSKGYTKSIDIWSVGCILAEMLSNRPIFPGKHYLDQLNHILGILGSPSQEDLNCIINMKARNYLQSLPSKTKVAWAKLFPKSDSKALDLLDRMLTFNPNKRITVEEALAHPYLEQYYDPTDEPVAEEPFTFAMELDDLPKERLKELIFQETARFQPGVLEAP
Tyrosine-protein kinase Lck (Homo sapiens), sequence (P06239 2-509 limits assumed): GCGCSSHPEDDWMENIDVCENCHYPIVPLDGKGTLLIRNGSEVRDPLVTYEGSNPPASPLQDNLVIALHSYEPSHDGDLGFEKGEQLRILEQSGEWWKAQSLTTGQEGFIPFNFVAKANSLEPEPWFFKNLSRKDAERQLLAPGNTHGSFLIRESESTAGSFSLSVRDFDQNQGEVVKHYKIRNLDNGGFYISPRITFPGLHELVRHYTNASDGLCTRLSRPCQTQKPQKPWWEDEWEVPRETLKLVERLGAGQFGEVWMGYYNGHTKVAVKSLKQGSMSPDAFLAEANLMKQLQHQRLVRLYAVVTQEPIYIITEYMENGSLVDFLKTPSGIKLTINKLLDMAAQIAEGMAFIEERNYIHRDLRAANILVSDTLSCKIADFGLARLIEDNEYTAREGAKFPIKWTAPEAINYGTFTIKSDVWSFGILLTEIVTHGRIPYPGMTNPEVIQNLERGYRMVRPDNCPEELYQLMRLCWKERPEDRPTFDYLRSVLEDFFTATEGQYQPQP

Cn1nc(C(C)(C)C)cc1NC(=O)Nc1ccc(Oc2ccccc2)cc1
IC50 [1]: 270 nM

Cn1nc(C(C)(C)C)cc1NC(=O)Nc1ccc(Cc2ccncc2)cc1
solubility [2]: 2000 µg/mL (≈ 5500 µM) | inhibition [3]: 17% | IC50 [4]: 4.2 nM | Activity (Mus musculus [5]): 46.7 ng/mL | Activity (Mus musculus [6]): 5.1 ng/mL | Activity (Mus musculus [7]): 1.9 | Activity (Mus musculus [8]): 1.4 | Activity (Mus musculus [9]): 0.7 | Activity (Mus musculus [10]): 0.78 | Activity (Mus musculus [11]): 0.3 | Activity (Mus musculus [12]): 0.38 | Activity (Mus musculus [13]): 0.2 | inhibition in vivo at 25 mg/kg (Mus musculus [14]): 60% | inhibition in vivo at 10 mg/kg (Mus musculus [15]): -24.5% | inhibition in vivo at 50 mg/kg (Mus musculus [16]): 84% | IO (Mus musculus [17]): 0.33 | inhibition in vivo at 50 mg/kg (Mus musculus [18]): < 86.5% | Activity (Mus musculus [19]): 19.8 ng/mL | IC50 [20]: 110 nM | inhibition [21]: 8% | IC (Mus musculus [22]): 0.8 | inhibition in vivo at 20 mg/kg (Mus musculus [23]): < 47.1% | inhibition [24]: 5% | inhibition [25]: 0% | inhibition [26]: 7% | inhibition [27]: 21% | IC50 (SW1353): 323 nM | inhibition [28]: 2% | inhibition [29]: 20% | inhibition [30]: 8% | inhibition [31]: 3% | solubility [32]: 50 µg/mL (≈ 138 µM)

Cn1nc(C(C)(C)C)cc1NC(=O)Nc1ccc(Sc2ccncc2)cc1
solubility [2]: 1660 µg/mL (≈ 4350 µM) | inhibition in vivo at 50 mg/kg (Mus musculus [16]): < 77% | inhibition in vivo at 100 mg/kg (Mus musculus [33]): < 90% | IC50 [1]: 13 nM | IC50 (SW1353): 95 nM | solubility [32]: 655 µg/mL (≈ 1720 µM)

Cn1nc(C(C)(C)C)cc1NC(=O)Nc1ccc(Oc2ccc(OCc3ccccc3)cc2)cc1
IC50 [1]: 110 nM

CCC(=O)Nc1ccc(Cc2ccc(NC(=O)Nc3cc(C(C)(C)C)nn3C)cc2)cc1
IC50 [1]: 38 nM | IC50 (SW1353): 1750 nM

CCOC(=O)Nc1ccc(Oc2ccc(NC(=O)Nc3cc(C(C)(C)C)nn3C)cc2)cc1
solubility [2]: 77 µg/mL (≈ 171 µM) | inhibition in vivo at 50 mg/kg (Mus musculus [16]): 16% | IC50 [1]: 33 nM | IC50 (SW1353): 87 nM | solubility [32]: 95 µg/mL (≈ 210 µM)

CC(C)CC(=O)Nc1ccc(Cc2ccc(NC(=O)Nc3cc(C(C)(C)C)nn3C)cc2)cc1
IC50 [1]: 37 nM | IC50 (SW1353): 170 nM

CCC(=O)Nc1ccc(Oc2ccc(NC(=O)Nc3cc(C(C)(C)C)nn3C)cc2)cc1
IC50 [1]: 69 nM | IC50 (SW1353): 1060 nM

CC(=O)Nc1ccc(Cc2ccc(NC(=O)Nc3cc(C(C)(C)C)nn3C)cc2)cc1
IC50 [1]: 70 nM

CC(C)OC(=O)Nc1ccc(Oc2ccc(NC(=O)Nc3cc(C(C)(C)C)nn3C)cc2)cc1
IC50 [1]: 54 nM | IC50 (SW1353): 162 nM

Cn1nc(C(C)(C)C)cc1NC(=O)Nc1ccc(Oc2ccc(C(C)(C)C)cc2)cc1
IC50 [1]: 183 nM

Cn1nc(C(C)(C)C)cc1NC(=O)Nc1ccc(Sc2ccc(O)cc2)cc1
IC50 [1]: 35 nM | IC50 (SW1353): 1100 nM

Cn1nc(C(C)(C)C)cc1NC(=O)Nc1ccc(Cc2ccc(NC(=O)CCC(=O)O)cc2)cc1
IC50 [1]: 200 nM | IC50 (SW1353): > 2500 nM

Cn1nc(C(C)(C)C)cc1NC(=O)Nc1ccc(CCc2ccncc2)cc1
IC50 [1]: 430 nM

Cn1nc(C(C)(C)C)cc1NC(=O)Nc1ccc(Oc2ccc(N)cc2)cc1
IC50 [1]: 310 nM

Cc1ccc(Oc2ccc(NC(=O)Nc3cc(C(C)(C)C)nn3C)cc2)cc1
IC50 [1]: 160 nM

Cn1nc(C(C)(C)C)cc1NC(=O)Nc1ccc(SCc2ccncc2)cc1
IC50 [1]: 140 nM

Cn1nc(C(C)(C)C)cc1NC(=O)Nc1ccc(Cc2ccc(N)cc2)cc1
IC50 [1]: 290 nM

CC(C)CC(=O)Nc1ccc(Oc2ccc(NC(=O)Nc3cc(C(C)(C)C)nn3C)cc2)cc1
IC50 [1]: 45 nM | IC50 (SW1353): 313 nM

CCCOc1ccc(Sc2ccc(NC(=O)Nc3cc(C(C)(C)C)nn3C)cc2)cc1
IC50 [1]: 57 nM | IC50 (SW1353): 235 nM

CC(=O)Nc1ccc(Oc2ccc(NC(=O)Nc3cc(C(C)(C)C)nn3C)cc2)cc1
IC50 [1]: 235 nM

CCCCOc1ccc(Sc2ccc(NC(=O)Nc3cc(C(C)(C)C)nn3C)cc2)cc1
IC50 [1]: 69 nM | IC50 (SW1353): > 2500 nM

Cn1nc(C(C)(C)C)cc1NC(=O)Nc1ccc(OCc2ccncc2)cc1
IC50 [1]: 260 nM

Cn1nc(C(C)(C)C)cc1NC(=O)Nc1ccc(Nc2ccncc2)cc1
IC50 [1]: 420 nM

Cn1nc(C(C)(C)C)cc1NC(=O)Nc1ccc(Cc2ccc(NC(=O)OC(C)(C)C)cc2)cc1
IC50 [1]: 87 nM | IC50 (SW1353): 57 nM

C[S+]([O-])c1ccc(-c2nc(-c3ccc(F)cc3)c(-c3ccncc3)[nH]2)cc1 (stereo not given) [SB-203580]
Activity (Mus musculus [5]): 38 ng/mL | Activity (Mus musculus [34]): 13 ng/mL | Activity (Mus musculus [35]): 1 | IC (Mus musculus [36]): 0.63 | IO (Mus musculus [37]): 0.25 | inhibition in vivo at 100 mg/kg (Mus musculus [38]): 80% | inhibition in vivo at 10 mg/kg (Mus musculus [39]): -1.4% | inhibition in vivo at 30 mg/kg (Mus musculus [40]): < 65.4%

Cn1nc(C(C)(C)C)cc1NC(=O)Nc1ccc(CSc2ccncc2)cc1
solubility [2]: 5160 µg/mL (≈ 13000 µM) | inhibition in vivo at 25 mg/kg (Mus musculus [14]): 22% | inhibition in vivo at 50 mg/kg (Mus musculus [16]): < 64% | inhibition in vivo at 10 mg/kg (Mus musculus [41]): -15% | IC50 [1]: 44 nM | IC50 (SW1353): 584 nM | solubility [32]: 322 µg/mL (≈ 814 µM)
